# Source: PubChem BioAssay (NCI)
#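 These data come from cells grown in 96-well plates and exposed to compound for 48 hours at five concentrations. The concentration for 50% growth inhibition is given as GI50. At the TGI there is no net growth.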
# Experiments:
# Assay in all cases: NCI-60 cell line screen, 48 h
# NCI-H226 lung = tested on: NCI-H226 lung
# UACC-257 melanoma = tested on: UACC-257 melanoma
# M14 melanoma = tested on: M14 melanoma
# DU-145 prostate = tested on: DU-145 prostate
# HCT-116 colon = tested on: HCT-116 colon
# RXF 393 renal = tested on: RXF 393 renal
# SK-MEL-28 melanoma = tested on: SK-MEL-28 melanoma
# HCT-15 colon = tested on: HCT-15 colon
# SF-268 CNS = tested on: SF-268 CNS
# SW-620 colon = tested on: SW-620 colon
# MDA-MB-231 breast = tested on: MDA-MB-231 breast
# SF-295 CNS = tested on: SF-295 CNS
# SK-OV-3 ovarian = tested on: SK-OV-3 ovarian
# A498 renal = tested on: A498 renal
# SN12C renal = tested on: SN12C renal
# MDA-MB-435 = tested on: MDA-MB-435
# RPMI-8226 leukemia = tested on: RPMI-8226 leukemia
# UACC-62 melanoma = tested on: UACC-62 melanoma
# CCRF-CEM leukemia = tested on: CCRF-CEM leukemia
# ACHN renal = tested on: ACHN renal
# NCI-H460 lung = tested on: NCI-H460 lung
# CAKI-1 renal = tested on: CAKI-1 renal
# SK-MEL-2 melanoma = tested on: SK-MEL-2 melanoma
# 786-0 renal = tested on: 786-0 renal
# KM12 colon = tested on: KM12 colon
# K-562 leukemia = tested on: K-562 leukemia
# EKVX NSCLC = tested on: EKVX NSCLC
# HOP-62 NSCLC = tested on: HOP-62 NSCLC
# MOLT-4 leukemia = tested on: MOLT-4 leukemia
# HT29 colon = tested on: HT29 colon
# T-47D breast = tested on: T-47D breast
# SNB-19 CNS = tested on: SNB-19 CNS
# UO-31 renal = tested on: UO-31 renal
# BT-549 breast = tested on: BT-549 breast
# MCF7 breast = tested on: MCF7 breast
# OVCAR-5 ovarian = tested on: OVCAR-5 ovarian
# PC-3 prostate = tested on: PC-3 prostate
# SF-539 CNS = tested on: SF-539 CNS
# OVCAR-8 ovarian = tested on: OVCAR-8 ovarian
# NCI/ADR-RES ovarian = tested on: NCI/ADR-RES ovarian
# HCC-2998 colon = tested on: HCC-2998 colon
# SK-MEL-5 melanoma = tested on: SK-MEL-5 melanoma
# COLO 205 colon = tested on: COLO 205 colon
# U251 CNS = tested on: U251 CNS
# MALME-3M melanoma = tested on: MALME-3M melanoma
# TK-10 renal = tested on: TK-10 renal
# NCI-H23 lung = tested on: NCI-H23 lung
# HS 578T breast = tested on: HS 578T breast
# HL-60(TB) leukemia = tested on: HL-60(TB) leukemia
# OVCAR-4 ovarian = tested on: OVCAR-4 ovarian
# OVCAR-3 ovarian = tested on: OVCAR-3 ovarian
# SNB-75 CNS = tested on: SNB-75 CNS
compound,measurement,setting,value
CCn1cc(C(=O)O)c(=O)c2cc(F)c(N3CCN(S(=O)(=O)c4ccc(Cl)cc4)CC3)cc21,GI50,NCI-H226 lung,3.02 µM
same,TGI,NCI-H226 lung,> 100 µM
same,GI50,UACC-257 melanoma,2.16 µM
same,TGI,UACC-257 melanoma,5.5 µM
same,GI50,M14 melanoma,2.85 µM
same,TGI,M14 melanoma,> 100 µM
same,GI50,DU-145 prostate,4.11 µM
same,TGI,DU-145 prostate,> 100 µM
same,GI50,HCT-116 colon,3.18 µM
same,TGI,HCT-116 colon,> 100 µM
same,GI50,RXF 393 renal,3.32 µM
same,TGI,RXF 393 renal,> 100 µM
same,GI50,SK-MEL-28 melanoma,4.88 µM
same,TGI,SK-MEL-28 melanoma,> 100 µM
same,GI50,HCT-15 colon,3.62 µM
same,TGI,HCT-15 colon,> 100 µM
same,GI50,SF-268 CNS,3.85 µM
same,TGI,SF-268 CNS,> 100 µM
same,GI50,SW-620 colon,3.43 µM
same,TGI,SW-620 colon,> 100 µM
same,GI50,MDA-MB-231 breast,2.51 µM
same,TGI,MDA-MB-231 breast,> 100 µM
same,GI50,SF-295 CNS,3.78 µM
same,TGI,SF-295 CNS,11.8 µM
same,GI50,SK-OV-3 ovarian,3.28 µM
same,TGI,SK-OV-3 ovarian,9.23 µM
same,GI50,A498 renal,1.81 µM
same,TGI,A498 renal,7.47 µM
same,GI50,SN12C renal,2.92 µM
same,TGI,SN12C renal,> 100 µM
same,GI50,MDA-MB-435,2.47 µM
same,TGI,MDA-MB-435,7.55 µM
same,GI50,RPMI-8226 leukemia,3.08 µM
same,TGI,RPMI-8226 leukemia,> 100 µM
same,GI50,UACC-62 melanoma,2.02 µM
same,TGI,UACC-62 melanoma,7.44 µM
same,GI50,CCRF-CEM leukemia,2.93 µM
same,TGI,CCRF-CEM leukemia,> 100 µM
same,GI50,ACHN renal,3.09 µM
same,TGI,ACHN renal,9.87 µM
same,GI50,NCI-H460 lung,3.16 µM
same,TGI,NCI-H460 lung,> 100 µM
same,GI50,CAKI-1 renal,2.75 µM
same,TGI,CAKI-1 renal,7.06 µM
same,GI50,SK-MEL-2 melanoma,2.57 µM
same,TGI,SK-MEL-2 melanoma,5.67 µM
same,GI50,786-0 renal,3.77 µM
same,TGI,786-0 renal,> 100 µM
same,GI50,KM12 colon,4.07 µM
same,TGI,KM12 colon,> 100 µM
same,GI50,K-562 leukemia,2.91 µM
same,TGI,K-562 leukemia,> 100 µM
same,GI50,EKVX NSCLC,2.25 µM
same,TGI,EKVX NSCLC,9.89 µM
same,GI50,HOP-62 NSCLC,4.47 µM
same,TGI,HOP-62 NSCLC,> 100 µM
same,GI50,MOLT-4 leukemia,3.83 µM
same,TGI,MOLT-4 leukemia,> 100 µM
same,GI50,HT29 colon,2.64 µM
same,TGI,HT29 colon,6.21 µM
same,GI50,T-47D breast,3.2 µM
same,TGI,T-47D breast,14.3 µM
same,GI50,SNB-19 CNS,3.97 µM
same,TGI,SNB-19 CNS,> 100 µM
same,GI50,UO-31 renal,2.07 µM
same,TGI,UO-31 renal,7.66 µM
same,GI50,BT-549 breast,2.44 µM
same,TGI,BT-549 breast,7.27 µM
same,GI50,MCF7 breast,2.98 µM
same,TGI,MCF7 breast,> 100 µM
same,GI50,OVCAR-5 ovarian,4.25 µM
same,TGI,OVCAR-5 ovarian,> 100 µM
same,GI50,PC-3 prostate,2.31 µM
same,TGI,PC-3 prostate,8.22 µM
same,GI50,SF-539 CNS,4.12 µM
same,TGI,SF-539 CNS,> 100 µM
same,GI50,OVCAR-8 ovarian,2.8 µM
same,TGI,OVCAR-8 ovarian,> 100 µM
same,GI50,NCI/ADR-RES ovarian,2.98 µM
same,TGI,NCI/ADR-RES ovarian,8.99 µM
same,GI50,HCC-2998 colon,4.1 µM
same,TGI,HCC-2998 colon,> 100 µM
same,GI50,SK-MEL-5 melanoma,1.8 µM
same,TGI,SK-MEL-5 melanoma,3.51 µM
same,GI50,COLO 205 colon,2.62 µM
same,TGI,COLO 205 colon,5.84 µM
same,GI50,U251 CNS,3.1 µM
same,TGI,U251 CNS,> 100 µM
same,GI50,MALME-3M melanoma,1.99 µM
same,TGI,MALME-3M melanoma,5.25 µM
same,GI50,TK-10 renal,3.73 µM
same,TGI,TK-10 renal,> 100 µM
same,GI50,NCI-H23 lung,2.67 µM
same,TGI,NCI-H23 lung,7.15 µM
same,GI50,HS 578T breast,4.52 µM
same,TGI,HS 578T breast,> 100 µM
same,GI50,HL-60(TB) leukemia,2.18 µM
same,TGI,HL-60(TB) leukemia,4.81 µM
same,GI50,OVCAR-4 ovarian,2.2 µM
same,TGI,OVCAR-4 ovarian,7.57 µM
same,GI50,OVCAR-3 ovarian,3.51 µM
same,TGI,OVCAR-3 ovarian,> 100 µM
same,GI50,SNB-75 CNS,2.6 µM
same,TGI,SNB-75 CNS,9.81 µM
